Source: ChEMBL document CHEMBL5120950, “Discovery and Mechanistic Study of Mycobacterium tuberculosis PafA Inhibitors” (J Med Chem, 2022)
pEC50, pIC50: −log10 of the molar value. Values after ≈ are worked out from the molar mass of the structure shown. Active and inactive are the calls of the source. The rule behind the calls is not given here.

What was measured:
[1] = molecular target: T1, Pup--protein ligase (Mycobacterium tuberculosis) (UniProt P9WNU7); assay: Activation of Mycobacterium tuberculosis PafA expressed in Escherichia coli BL-21(DE3) assessed as pup-ylation using Mtb PanB substrate at 20 uM by SDS-PAGE analysis; details: filed as activator
T1 sequence (whole entry): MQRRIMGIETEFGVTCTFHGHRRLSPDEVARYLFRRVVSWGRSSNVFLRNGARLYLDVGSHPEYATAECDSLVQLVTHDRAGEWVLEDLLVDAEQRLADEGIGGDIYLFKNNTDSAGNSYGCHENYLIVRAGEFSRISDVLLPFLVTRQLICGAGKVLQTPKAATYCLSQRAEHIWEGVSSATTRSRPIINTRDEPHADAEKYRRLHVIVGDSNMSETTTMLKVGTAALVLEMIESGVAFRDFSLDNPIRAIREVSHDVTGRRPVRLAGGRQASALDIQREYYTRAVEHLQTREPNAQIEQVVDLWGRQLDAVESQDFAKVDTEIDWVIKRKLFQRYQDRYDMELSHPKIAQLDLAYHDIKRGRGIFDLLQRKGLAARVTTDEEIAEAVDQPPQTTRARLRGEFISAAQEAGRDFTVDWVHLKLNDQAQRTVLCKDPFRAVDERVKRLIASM

[2] = molecular target: T1, Pup--protein ligase (Mycobacterium tuberculosis); assay: Activation of Mycobacterium tuberculosis PafA expressed in Escherichia coli BL-21(DE3) assessed as pup-ylation using Mtb InhA substrate at 20 uM by SDS-PAGE analysis; details: filed as activator
[3] = molecular target: T1, Pup--protein ligase (Mycobacterium tuberculosis); assay: Activation of Mycobacterium tuberculosis PafA expressed in Escherichia coli BL-21(DE3) assessed as pup-ylation using Mtb PknB substrate at 20 uM by SDS-PAGE analysis; details: filed as activator
[4] = molecular target: T1, Pup--protein ligase (Mycobacterium tuberculosis); assay: Activation of Mycobacterium tuberculosis PafA expressed in Escherichia coli BL-21(DE3) assessed as pup-ylation using Mtb KasA substrate at 20 uM by SDS-PAGE analysis; details: filed as activator
[5] = molecular target: T1, Pup--protein ligase (Mycobacterium tuberculosis); assay: Activation of Mycobacterium tuberculosis PafA expressed in Escherichia coli BL-21(DE3) assessed as pup-ylation using Mtb DHFR substrate at 20 uM by SDS-PAGE analysis; details: filed as activator
[6] = molecular target: T1, Pup--protein ligase (Mycobacterium tuberculosis); assay: Inhibition of Mycobacterium tuberculosis PafA expressed in Escherichia coli BL-21(DE3) assessed as inhibition of pup-ylation using Mtb PanB substrate at 20 uM by SDS-PAGE analysis
[7] = molecular target: T2, Pup--protein ligase (Corynebacterium glutamicum) (UniProt Q8NQE1); assay: Inhibition of Corynebacterium glutamicum PafA expressed in Escherichia coli BL-21(DE3) assessed as inhibition of pup-ylation using Mtb PanB substrate at 20 uM by SDS-PAGE analysis
T2 sequence (whole entry): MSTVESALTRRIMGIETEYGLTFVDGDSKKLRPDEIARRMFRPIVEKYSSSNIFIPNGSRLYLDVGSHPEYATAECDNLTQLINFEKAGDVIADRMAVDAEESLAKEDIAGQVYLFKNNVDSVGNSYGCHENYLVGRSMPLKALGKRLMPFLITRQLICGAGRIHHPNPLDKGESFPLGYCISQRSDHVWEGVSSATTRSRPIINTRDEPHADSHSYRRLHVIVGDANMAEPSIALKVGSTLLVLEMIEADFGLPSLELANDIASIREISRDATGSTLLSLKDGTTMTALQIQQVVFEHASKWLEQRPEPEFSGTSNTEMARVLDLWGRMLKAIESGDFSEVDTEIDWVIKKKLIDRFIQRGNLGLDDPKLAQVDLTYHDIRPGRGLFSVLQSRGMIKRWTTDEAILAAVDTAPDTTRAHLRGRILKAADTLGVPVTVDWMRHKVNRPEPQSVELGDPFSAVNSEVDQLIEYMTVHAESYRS

Pup--protein ligase [8] = molecular target: T3, Pup--protein ligase (Mycobacterium tuberculosis, UniProt P9WNU7); assay: Inhibition of Mycobacterium tuberculosis PafA expressed in Escherichia coli BL-21(DE3) assessed as inhibition of pup-ylation using Mtb PanB substrate by SDS-PAGE analysis
T3 sequence (P9WNU7 whole entry): T1 sequence (whole entry)

[9] = molecular target: T1, Pup--protein ligase (Mycobacterium tuberculosis); assay: Binding affinity to Mycobacterium tuberculosis PafA expressed in Escherichia coli BL-21(DE3) assessed as increase in thermal stability at 40 uM incubated for 15 mins at 25 degC followed by incubated at 52 to 72 degC for 5 mins by CESTA analysis
[10] = system: Mycobacterium tuberculosis; assay: Antimycobacterial activity against Mycobacterium tuberculosis H37Ra assessed as inhibition of growth measured after 7 days by microplate reader; type: functional; details: 168 h, time 7 day
[11] = molecular target: T1, Pup--protein ligase (Mycobacterium tuberculosis); assay: Inhibition of Mycobacterium tuberculosis PafA expressed in Escherichia coli BL-21(DE3) assessed as inhibition of pup-ylation using Mtb InhA substrate at 20 uM by SDS-PAGE analysis
[12] = molecular target: T1, Pup--protein ligase (Mycobacterium tuberculosis); assay: Inhibition of Mycobacterium tuberculosis PafA expressed in Escherichia coli BL-21(DE3) assessed as inhibition of pup-ylation using Mtb KasA substrate at 20 uM by SDS-PAGE analysis
[13] = molecular target: T1, Pup--protein ligase (Mycobacterium tuberculosis); assay: Inhibition of Mycobacterium tuberculosis PafA expressed in Escherichia coli BL-21(DE3) assessed as inhibition of pup-ylation using Mtb PknB substrate at 20 uM by SDS-PAGE analysis
[14] = molecular target: T1, Pup--protein ligase (Mycobacterium tuberculosis); assay: Inhibition of Mycobacterium tuberculosis PafA expressed in Escherichia coli BL-21(DE3) assessed as inhibition of pup-ylation using Mtb DHFR substrate at 20 uM by SDS-PAGE analysis
[15] = molecular target: T1, Pup--protein ligase (Mycobacterium tuberculosis); assay: Binding affinity to Mycobacterium tuberculosis PafA expressed in Escherichia coli BL-21(DE3) assessed as increase in thermal stability by measuring change in melting temperature in at 50 uM by CESTA analysis
Pup--protein ligase [16] = molecular target: T4, Pup--protein ligase (Corynebacterium glutamicum, UniProt Q8NQE1); assay: Activation of Corynebacterium glutamicum PafA expressed in Escherichia coli BL-21(DE3) assessed as pup-ylation using Mtb PanB substrate by SDS-PAGE analysis
T4 sequence (Q8NQE1 whole entry): T2 sequence (whole entry)

Pup--protein ligase [17] = molecular target: T4, Pup--protein ligase; assay: Activation of Corynebacterium glutamicum PafA expressed in Escherichia coli BL-21(DE3) assessed as pup-ylation using Mtb KasA substrate by SDS-PAGE analysis

COCC[n+]1c2c(n(Cc3cnccn3)c1C)C(=O)c1ccccc1C2=O
Activity [1]: Active
Activity [2]: Active
Activity [3]: Active
Activity [4]: Active
Activity [5]: Active

Oc1ccc(Cl)cc1Sc1cc(Cl)cc(Cl)c1
inhibition [6]: Active

Oc1ccccc1Sc1cc(Cl)cc(Cl)c1
inhibition [6]: Active

Oc1ccccc1Sc1cc(Cl)cc(Cl)c1Cl
inhibition [6]: Active

O=C(O)/C=C/c1ccc(-c2ccc(O)c(C34CC5CC(CC(C5)C3)C4)c2)cc1 [ADAROTENE]
inhibition [6]: Active
inhibition [7]: Active
pIC50 (Pup--protein ligase [8]): 4.75
Activity [9]: Active
MIC90 [10]: 164 µM (≈ 61.4 µg/mL)
inhibition [11]: Active
inhibition [12]: Active
inhibition [13]: Active
inhibition [14]: Active
ΔTm [15]: 2.5 °C

Oc1c(Cl)cc(Cl)cc1Sc1cc(Cl)cc(Cl)c1O [BITHIONOL]
inhibition [6]: Active
pIC50 (Pup--protein ligase [8]): 4.80
MIC90 [10]: 89.9 µM (≈ 32 µg/mL)

COCCn1c2c([n+](Cc3cnccn3)c1C)C(=O)c1ccccc1C2=O [SEPANTRONIUM]
pEC50 (Pup--protein ligase [16]): 5.77
pEC50 (Pup--protein ligase [17]): 5.70
